This is an account of results in patent US20260091026A1, “METHODS OF TREATING INFLAMMATORY DISEASES” (INTERLINE THERAPEUTICS, INC., priority 2023, published 2026).

Some results are limits rather than exact numbers.

In assay [1] the target is T1, GST-RIPK2 fusion protein (human RIPK2 amino acids 1-310) (Homo sapiens, UniProt O43353).
T1 construct: made in house; host or cells: baculovirus-infected Sf9 cells
As to the kind of experiment: RIPK2 binding competition assay (TR-FRET, Tracer 199). The settings on record: displacement of Tracer 199 (10 nM), 45 min at 22° C. From the text:
The ability of selected compounds of Formulas (I) and (II) to inhibit the binding of an Alexa647-labelled ATP-competitive kinase inhibitor to a GST-RIPK2 fusion protein was quantified employing the TR-FRET-based RIPK2 binding competition assay as described in the following paragraphs.
Recombinant fusion protein of N-terminal Glutathione-S-Transferase (GST) and a fragment of human RIPK2 (amino acids 1-310 of accession number 043353), expressed in baculovirus infected Sf9 cells, purified via glutathione affinity chromatography, was used as GST-RIPK2 fusion protein. Tracer 199 from Life Technologies (catalogue no. PR9115B) was used as Alexa647-labelled ATP-competitive kinase inhibitor.
For the assay, 50 nL of a 100-fold concentrated solution of each test compound in DMSO was pipetted into either a black low volume 384-well microtiter plate or a black 1536-well microtiter plate (both Greiner Bio-One, Frickenhausen, Germany), 3 μL solution of Tracer 199 (16.7 nM=>final concentration in 5 μL assay volume is 10 nM) in aqueous assay buffer (25 mM Tris/HCl pH 7.5, 10 mM magnesium chloride (MgCl2), 5 mM β-glycerophosphate, 2.5 mM dithiothreitol (DTT), 0.5 mM ethylene glycol-bis(2-aminoethylether)-N,N,N′,N′-tetraacetic acid (EGTA), 0.5 mM sodium ortho-vanadate, 0.01% (w/v) bovine serum albumin (BSA), 0.005% (w/v) Pluronic F-127 (Sigma)) were added. Then the binding competition was started by the addition of 2 μL of a solution of the GST-RIPK2 fusion protein (2.5 nM=>final conc. in the 5 μL assay volume is 1 nM) and of Anti-GST-Tb (1.25 nM=>final conc. in the 5 μL assay volume is 0.5 nM), a Lumi4®—Tb cryptate-conjugated anti-GST antibody from PerkinElmer (catalogue no 61GSTTAH), in assay buffer.
The resulting mixture was incubated 45 min at 22° C. to allow the formation of a complex between the Tracer 199, the fusion protein and Anti-GST-Tb. Subsequently, the amount of this complex was evaluated by measurement of the resonance energy transfer from the Tb-cryptate to the Tracer 199. Therefore, the fluorescence emissions at 620 nm and 665 nm after excitation at 337 nm were measured in a TR-FRET reader, e.g. a Pherastar FS(BMG Labtechnologies, Offenburg, Germany) or a Viewlux (PerkinElmer). The ratio of the emissions at 665 nm and at 620 nm was taken as the measure of the amount of the complex. The data were normalized (assay reaction without inhibitor=0% activity, all other assay components but no GST-RIPK2 fusion protein=−100% activity).

The target of assay [2] is T2, RIPK2 (KD)/XIAP (BIR2) (Homo sapiens, UniProt O43353).
T2 construct: made in house; host or cells: baculovirus-infected Sf9 cells
As to the kind of experiment: RIPK2-XIAP binding competition PPI assay (TR-FRET). The settings on record: for Emax: 50 nM of GSK583 = -100% activity, read-out: PPI Amax; for IC50: GST-RIPK2 / His-XIAP (BIR2)-avi, 120 min at 23° C. The essentials:
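TR-FRET competition between GST-RIPK2 (aa 1-310, 1 nM) and His-XIAP BIR2-avi (aa 152-231, 25 nM), both Sf9-expressed, detected with anti-His-XL665 and anti-GST-Tb in Tris pH 7.5 buffer with MgCl2, DTT and vanadate. Incubation was 120 min at 23 °C; the 665/520 nm ratio was normalized to no inhibitor (0%) and 50 nM GSK583 (−100%).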
Background: Time-resolved FRET reads energy transfer from a long-lived donor to a nearby acceptor.

Assay [3] deals with THP1-Dual cells, NF-κB pathway (SEAP). Nature of the assay: THP-1 Dual cell SEAP assay (L18-MDP stimulated). The format is cell-based. The conditions noted are these: Homo sapiens, 10 ng/mL L18-MDP, 20-24 h, SEAP readout, read-out: IFNγ THP1 IC50. The essentials: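 About 25,000 THP1-Dual cells per well were preincubated 30 min with serially diluted compound, then stimulated overnight (20-24 h, 37 °C) with 10 ng/mL L18-MDP (final). NF-κB-driven SEAP in supernatant was read with QUANTI-Blue at OD 620-655 nm after 2 h; % inhibition versus DMSO/L18-MDP wells was fitted by non-linear regression to give IC50.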

T1 sequence (O43353 1-310): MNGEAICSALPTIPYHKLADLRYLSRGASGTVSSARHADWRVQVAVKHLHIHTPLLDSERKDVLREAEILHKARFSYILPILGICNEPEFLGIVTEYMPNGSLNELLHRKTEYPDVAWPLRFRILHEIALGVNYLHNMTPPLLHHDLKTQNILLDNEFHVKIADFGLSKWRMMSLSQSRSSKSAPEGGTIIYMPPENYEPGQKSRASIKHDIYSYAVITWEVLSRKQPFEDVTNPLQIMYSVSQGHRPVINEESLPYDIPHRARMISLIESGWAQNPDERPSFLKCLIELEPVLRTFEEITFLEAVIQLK
T2 sequence (O43353 1-310): as above

Consider `COc1cc2ncc(-n3cc(NC(=O)[C@H]4CC[C@@H](O)CC4)cn3)n2cc1S(=O)(=O)C(C)(C)C` [Example 172, (1s,4s)-N-(1-(6-(tert-butylsulfonyl)-7-methoxyimidazo[1,2-a]pyridin-3-yl)-1H-pyrazol-4-yl)-4-hydroxycyclohexane-1-carboxamide], for which the IC50 in assay [1] was above 1000 nM; in assay [2], above 1000 nM; in assay [3] it was above 2500 nM. Also, the Emax in assay [2] was in the range of 30 to 55%.

As for `COc1cc2ncc(-n3cc(N(C)C(=O)Cc4ccccc4Cl)cn3)n2cc1S(=O)(=O)C(C)(C)C` [Example 173, N-(1-(6-(tert-butylsulfonyl)-7-methoxyimidazo[1,2-a]pyridin-3-yl)-1H-pyrazol-4-yl)-2-(2-chlorophenyl)-N-methylacetamide], the IC50 in assay [1] was above 1000 nM; in assay [2] it was above 1000 nM; in assay [3], above 2500 nM. Also, the Emax in assay [2] is at least 80%.

On to `COc1cc2ncc(-n3cc(NC(=O)C4(F)CCC5(CC5)CC4)cn3)n2cc1S(=O)(=O)C(C)(C)C` [Example 174, N-(1-(6-(tert-butylsulfonyl)-7-methoxyimidazo[1,2-a]pyridin-3-yl)-1H-pyrazol-4-yl)-6-fluorospiro[2.5]octane-6-carboxamide], for which the values for the IC50 in assay [1], in assay [2] and in assay [3] were 500 to 1000 nM, above 1000 nM and above 2500 nM, respectively. For the same compound, in assay [2], the Emax was at least 80%.

Take `COc1cc2ncc(-n3cc(NC(=O)C4(C)CCCCC4)cn3)n2cc1S(=O)(=O)C(C)(C)C` [Example 175, N-(1-(6-(tert-butylsulfonyl)-7-methoxyimidazo[1,2-a]pyridin-3-yl)-1H-pyrazol-4-yl)-1-methylcyclohexane-1-carboxamide]: the values for the IC50 in assay [1], in assay [2] and in assay [3] were above 1000 nM, above 1000 nM and above 2500 nM, respectively. Also, the Emax in assay [2] fell in the range of 55 to 80%.

On to `COc1cc2ncc(-c3cc(NC(=O)C4(F)CCCCC4)n(C)n3)n2cc1S(=O)(=O)C(C)(C)C` [Example 176, N-(3-(6-(tert-butylsulfonyl)-7-methoxyimidazo[1,2-a]pyridin-3-yl)-1-methyl-1H-pyrazol-5-yl)-1-fluorocyclohexane-1-carboxamide], for which the half-maximal inhibitory concentration (IC50) in assay [1] is below 200 nM; in assay [2] it was 100 to 1000 nM; in assay [3], 500 to 2500 nM. Moreover, the Emax in assay [2] was at least 80%.

With `COc1cc2ncc(-n3cc(N4CCC5(CCCCC5)C4=O)cn3)n2cc1S(=O)(=O)C(C)(C)C` [Example 181, 2-(1-(6-(tert-butylsulfonyl)-7-methoxyimidazo[1,2-a]pyridin-3-yl)-1H-pyrazol-4-yl)-2-azaspiro[4.5]decan-1-one], the IC50 is above 1000 nM in assay [1], above 1000 nM in assay [2] and above 2500 nM in assay [3]. Besides, the Emax in assay [2] was in the range of 30 to 55%.

As for `CN1CCC(Nc2cncc(-c3cc(NC(=O)Cc4ccccc4Cl)n(C)n3)c2)CC1` [Example 184, 2-(2-chlorophenyl)-N-(1-methyl-3-(5-((1-methylpiperidin-4-yl)amino)pyridin-3-yl)-1H-pyrazol-5-yl) acetamide], the IC50 in assay [1] is below 200 nM; in assay [2] it was 100 to 1000 nM; in assay [3], above 2500 nM. The Emax in assay [2] was at least 80%.

For the compound `COc1cc2ncc(-c3cc(NC(=O)Cc4ccccc4Cl)n(C)n3)n2cc1S(=O)(=O)C(C)(C)C` [Example 185, N-(3-(6-(tert-butylsulfonyl)-7-methoxyimidazo[1,2-a]pyridin-3-yl)-1-methyl-1H-pyrazol-5-yl)-2-(2-chlorophenyl)acetamide], the IC50 in assay [1] is below 200 nM; in assay [2], 10 to 100 nM; in assay [3], 500 to 2500 nM. Moreover, the Emax in assay [2] is at least 80%.

Regarding `COc1cc2ncc(-c3cc(NC(=O)Cc4ccccc4Cl)n(C)n3)n2cc1C1(F)CCN(C)CC1` [Example 186, 2-(2-chlorophenyl)-N-(3-(6-(4-fluoro-1-methylpiperidin-4-yl)-7-methoxyimidazo[1,2-a]pyridin-3-yl)-1-methyl-1H-pyrazol-5-yl)acetamide], the IC50 in assay [1] is below 200 nM; in assay [2] it was 10 to 100 nM; in assay [3], 500 to 2500 nM. Moreover, in assay [2], the Emax was at least 80%.

Take `COc1cc2ncc(-c3cc(NC(=O)C4(F)CCCCC4)n(CCO)n3)n2cc1S(=O)(=O)C(C)(C)C` [Example 193, N-(3-(6-(tert-butylsulfonyl)-7-methoxyimidazo[1,2-a]pyridin-3-yl)-1-(2-hydroxyethyl)-1H-pyrazol-5-yl)-1-fluorocyclohexane-1-carboxamide]: the IC50 in assay [1] was below 200 nM; in assay [2], 100 to 1000 nM; in assay [3], above 2500 nM. For the same compound, in assay [2], the Emax is at least 80%.

As to `COc1ccn2ncc(-c3cc(NC(=O)C4(F)CCCCC4)n(CCO)n3)c2n1` [compound 194], the IC50 is above 1000 nM in assay [1], above 1000 nM in assay [2] and above 2500 nM in assay [3]. For the same compound, the Emax in assay [2] was at most 30%.

Usually IC50 stands for the concentration that inhibits the measured activity by half.
